≈ marks a conversion by molar mass, not a printed value. Calls of active or inactive are those of the source. The rule behind the calls is not given here.
Tests used:
Candida albicans [1] = test: Antifungal activity against Candida albicans ATCC SC5314 assessed as fungal growth inhibition measured after 72 hrs by double dilution method; type: functional
Cryptococcus neoformans = test: Antifungal activity against Cryptococcus neoformans ZKCC 2209 assessed as fungal growth inhibition measured after 72 hrs by double dilution method; type: functional
[2] = target: T1, Lanosterol 14-alpha demethylase (Candida albicans (strain SC5314 / ATCC MYA-2876) (Yeast), UniProt P10613); test: Inhibition of CYP51 in Candida albicans ATCC SC5314 assessed as lanosterol level at 4 ug/ml incuabted for 48 hrs by GC-MS analysis relative to control; design: scale not given: the % may be the effect or the level left; conditions: at 4 µg/mL
[3] = target: T1, Lanosterol 14-alpha demethylase; test: Inhibition of CYP51 in Candida albicans ATCC SC5314 assessed as unknown sterol level at 4 ug/ml incuabted for 48 hrs by GC-MS analysis (reference value: 2.47%); design: scale not given: the % may be the effect or the level left; conditions: at 4 µg/mL
Mus musculus [4] = organism: Mus musculus; test: Immunostimulatory activity in mouse infected with Candida albicans ATCC SC5314 assessed as increase in CD8+ expression level in spleen by immunohistochemical analysis; type: functional
[5] = target: T1, Lanosterol 14-alpha demethylase; test: Inhibition of CYP51 in Candida albicans SC5314 using Eburicol as substrate preincubated for 20 mins followed by substrate addition and measured after 4 mins by HPLC analysis; type: single protein
Candida tropicalis = test: Antifungal activity against Candida tropicalis ATCC 1369 assessed as fungal growth inhibition measured after 72 hrs by double dilution method; type: functional
[6] = target: T1, Lanosterol 14-alpha demethylase; test: Inhibition of CYP51 in Candida albicans ATCC SC5314 assessed as ergosterol level at 4 ug/ml incuabted for 48 hrs by GC-MS analysis (reference value: 96.48%); design: scale not given: the % may be the effect or the level left; conditions: at 4 µg/mL
Candida albicans [7] = test: Induction of apoptosis in Candida albicans ATCC SC5314 assessed as late apoptotic cells incuabted for 24 hrs by V-FITC/PI staining based flow cytometry analysis (reference value: 0.36%); type: functional
Candida albicans [8] = test: Induction of mitochondrial membrane potential loss in Candida albicans ATCC SC5314 assessed as depolarized cells at 1 umol/ml incubated for 24 hrs by JC-1 staining based flow cytometry assay (reference value: 0.76 to 3.29%); type: functional; conditions: dose 1 µmol/L, at 1 µM
Candida albicans [9] = test: Induction of mitochondrial membrane potential loss in Candida albicans ATCC SC5314 assessed as polarized cells at 1 umol/ml incubated for 24 hrs by JC-1 staining based flow cytometry assay (reference value: 0.69%); type: functional; conditions: dose 1 µmol/L, at 1 µM
[10] = Toxicity in mouse infected with Candida albicans assessed as spleen injury at 10 ug per 20 g, ip administered on day 2, 4, 6, 8, 10 and 12 and measured on day 14 by H and E staining based assay; type: organism-based; conditions: in vivo, 336 h, dose 10 µg, time 14 day
Pichia kudriavzevii = test: Antifungal activity against Candida krusei ATCC 6258 assessed as fungal growth inhibition measured after 72 hrs by double dilution method; type: functional
Candida albicans [11] = test: Induction of mitochondrial membrane potential loss in Candida albicans ATCC SC5314 assessed as normal cells at 1 umol/ml incubated for 24 hrs by JC-1 staining based flow cytometry assay (reference value: 95.26%); type: functional; conditions: dose 1 µmol/L, at 1 µM
[12] = Toxicity in mouse infected with Candida albicans assessed as liver injury at 10 ug per 20 g, ip administered on day 2, 4, 6, 8, 10 and 12 and measured on day 14 by H and E staining based assay; type: organism-based; conditions: in vivo, 336 h, dose 10 µg, time 14 day
Candida albicans [13] = test: Induction of apoptosis in Candida albicans ATCC SC5314 assessed as necrotic cells incuabted for 24 hrs by V-FITC/PI staining based flow cytometry analysis (reference value: 1.77%); type: functional
[14] = Toxicity in mouse infected with Candida albicans assessed as ALT level in plasma at 10 ug per 20 g, ip administered on day 2, 4, 6, 8, 10 and 12 and measured on day 14 (reference value: 43.6 +/- 4.4 IU/L); type: organism-based; conditions: in vivo, 336 h, dose 10 µg, time 14 day
Candida albicans [15] = test: Antifungal activity against Candida albicans ATCC SC5314 assessed as decrease in fungal cell density measured immediately by fluorescence microscopy (reference value: 126%); type: functional; design: scale not given: the % may be the effect or the level left
Candida albicans [16] = test: Antifungal activity against fluconazole- resistant Candida albicans 17# assessed as fungal growth inhibition measured after 72 hrs by double dilution method; type: functional
Candida albicans [17] = test: Antifungal activity against fluconazole -resistant Candida albicans 904 assessed as fungal growth inhibition measured after 72 hrs by double dilution method; type: functional
Mus musculus [18] = organism: Mus musculus; test: Immunostimulatory activity in mouse infected with Candida albicans ATCC SC5314 assessed as increase in CD3+ expression level in spleen by immunohistochemical analysis; type: functional
Candida albicans [19] = test: Antifungal actvity against Candida albicans ATCC SC5314 infected in mouse assessed as reduction in fungal infection at 10 ug per 20 g, ip administered on day 2, 4, 6, 8, 10 and 12 and measured on day 14; type: functional, organism-based; conditions: dose 10.0 µg, time 14.0 day
Candida albicans [20] = test: Induction of apoptosis in Candida albicans ATCC SC5314 assessed as mid apoptotic cells incuabted for 24 hrs by V-FITC/PI staining based flow cytometry analysis (reference value: 1.09%); type: functional
Mus musculus [21] = organism: Mus musculus; test: Immunostimulatory activity in mouse infected with Candida albicans ATCC SC5314 assessed as reduction in PD-L1 expression in spleen by western blot analysis relative to control; type: functional; design: scale not given: the % may be the effect or the level left
Candida albicans [22] = test: Induction of apoptosis in Candida albicans ATCC SC5314 assessed as normal cells incuabted for 24 hrs by V-FITC/PI staining based flow cytometry analysis (reference value: 96.78%); type: functional
Candida albicans [23] = test: Antifungal activity against Candida albicans ATCC SC5314 assessed as induction of ROS production by measuring fluorescence intensity incubated for 12 hrs by KGT010-1 staining based fluorescence microscopy; type: functional, organism-based
Candida albicans [24] = test: Antifungal activity against fluconazole -resistant Candida albicans CaR assessed as fungal growth inhibition measured after 72 hrs by double dilution method; type: functional
Candida albicans [25] = test: Antifungal activity against Candida albicans ATCC SC5314 assessed as decrease in fungal cell density measured at 48 hrs by fluorescence microscopy (reference value: 258%); type: functional; design: scale not given: the % may be the effect or the level left
Candida albicans [26] = test: Antifungal activity against fluconazole -resistant Candida albicans 632 assessed as fungal growth inhibition measured after 72 hrs by double dilution method; type: functional
[27] = target: T1, Lanosterol 14-alpha demethylase; test: Inhibition of CYP51 in Candida albicans ATCC SC5314 assessed as eburicol level at 4 ug/ml incuabted for 48 hrs by GC-MS analysis (reference value: 1.05%); design: scale not given: the % may be the effect or the level left; conditions: at 4 µg/mL
[28] = Toxicity in mouse infected with Candida albicans assessed as AST level in plasma at 10 ug per 20 g, ip administered on day 2, 4, 6, 8, 10 and 12 and measured on day 14 (reference value: 74.9 +/- 6.7 IU/L); type: organism-based; conditions: in vivo, 336 h, dose 10 µg, time 14 day
[29] = Toxicity in mouse infected with Candida albicans assessed as BUN level in plasma at 10 ug per 20 g, ip administered on day 2, 4, 6, 8, 10 and 12 and measured on day 14 (reference value: 8.2 +/- 0.5 mmol/L); type: organism-based; conditions: in vivo, 336 h, dose 10 µg, time 14 day
Aspergillus fumigatus = test: Antifungal activity against Aspergillus fumigatus KM8001 assessed as fungal growth inhibition measured after 72 hrs by double dilution method; type: functional
Candida albicans [30] = test: Antifungal activity against fluconazole -resistant Candida albicans 901 assessed as fungal growth inhibition measured after 72 hrs by double dilution method; type: functional
Mus musculus [31] = organism: Mus musculus; test: Antiinflammatory activity against mouse infected with Candida albicans ATCC SC5314 assessed as reduction in COX-2 expression in spleen by Western blot analysis; type: functional; design: scale not given: the % may be the effect or the level left

T1 sequence (P10613 whole entry): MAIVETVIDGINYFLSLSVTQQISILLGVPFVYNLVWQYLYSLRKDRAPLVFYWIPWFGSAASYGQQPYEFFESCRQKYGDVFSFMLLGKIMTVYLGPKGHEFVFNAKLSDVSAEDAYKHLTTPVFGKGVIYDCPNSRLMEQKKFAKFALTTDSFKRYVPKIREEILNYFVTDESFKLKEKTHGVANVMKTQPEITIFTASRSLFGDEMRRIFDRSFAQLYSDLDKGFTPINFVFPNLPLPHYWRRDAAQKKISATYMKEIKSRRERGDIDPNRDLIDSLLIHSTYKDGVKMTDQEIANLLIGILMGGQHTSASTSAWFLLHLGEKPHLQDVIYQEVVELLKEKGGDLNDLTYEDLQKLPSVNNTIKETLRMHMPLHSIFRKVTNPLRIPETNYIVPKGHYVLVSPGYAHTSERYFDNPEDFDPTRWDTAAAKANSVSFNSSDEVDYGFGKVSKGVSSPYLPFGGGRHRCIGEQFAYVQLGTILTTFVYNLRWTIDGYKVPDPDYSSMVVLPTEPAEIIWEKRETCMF

In the case of `OC(Cn1cncn1)(Cn1cncn1)c1ccc(F)cc1F` [FLUCONAZOLE], the MIC50 (Candida albicans [1]) is reported as 0.5 µg/mL (≈ 1.63 µM), the MIC50 (Cryptococcus neoformans) is reported as 0.5 µg/mL (≈ 1.63 µM) and the Activity [2] is reported as 35.17%. The Activity [3] was 11.4%, the Activity (Mus musculus [4]) was 2.5 and the IC50 [5] was 140 nM. The MIC50 (Candida tropicalis) was 0.5 µg/mL (≈ 1.63 µM), the Activity [6] was 13.19% and the Activity (Candida albicans [7]) was 1.56%. The Activity (Candida albicans [8]) was 0.37%, the Activity (Candida albicans [9]) was 0.39% and the Activity [10] was “Non-Toxic”. The MIC50 (Pichia kudriavzevii) was 1 µg/mL (≈ 3.27 µM), the Activity (Candida albicans [11]) was 81.14% and the Activity [12] was “Non-Toxic”. For the same compound, the Activity (Candida albicans [13]) was 29.87%, the Activity [14] was 37.5 IU/L and the Activity (Candida albicans [15]) was 119%. For the same compound, the MIC50 (Candida albicans [16]) was > 8 µg/mL, the MIC50 (Candida albicans [17]) was > 8 µg/mL and the Activity (Mus musculus [18]) was 2.5. The Activity (Candida albicans [19]) was “Active”, the Activity (Candida albicans [20]) was 0.4% and the Activity (Mus musculus [21]) was 31.81%. The Activity (Candida albicans [22]) was 68.17%, the Activity (Candida albicans [23]) was “Active” and the MIC50 (Candida albicans [24]) was > 8 µg/mL. For the same compound, the Activity (Candida albicans [25]) was 75%, the MIC50 (Candida albicans [26]) was > 8 µg/mL and the Activity [27] was 40.24%. For the same compound, the Activity [28] was 81.6 IU/L, the Activity [29] was 9.7 mmol/L and the MIC50 (Aspergillus fumigatus) was > 8 µg/mL. The MIC50 (Candida albicans [30]) was > 8 µg/mL and the Activity (Mus musculus [31]) was 47.23%.

In the case of `CC(C)NC(=O)[C@@H](Cn1ccnc1)NC(=O)[C@@H](C)c1cccc(C(=O)c2ccccc2)c1`, the MIC50 (Candida albicans [1]) is reported as 0.125 µg/mL (≈ 0.289 µM), the MIC50 (Cryptococcus neoformans) is reported as 0.5 µg/mL (≈ 1.16 µM) and the Activity [2] is reported as 39.58%. The Activity [3] was 11.8%, the Activity (Mus musculus [4]) was “Active” and the IC50 [5] was 150 nM. It also gave an MIC50 (Candida tropicalis) of 0.5 µg/mL (≈ 1.16 µM), an Activity [6] of 11.27% and an Activity (Candida albicans [7]) of 12.5%. The Activity (Candida albicans [8]) was 0.76%, the Activity (Candida albicans [9]) was 0.39% and the MIC50 (Pichia kudriavzevii) was 0.25 µg/mL (≈ 0.578 µM). It also gave an Activity (Candida albicans [11]) of 62.2%, an Activity (Candida albicans [13]) of 30.96% and an Activity [14] of 41.2 IU/L. It also gave an Activity (Candida albicans [15]) of 121%, an MIC50 (Candida albicans [16]) of 2 µg/mL (≈ 4.62 µM) and an MIC50 (Candida albicans [17]) of 4 µg/mL (≈ 9.25 µM). For the same compound, the Activity (Mus musculus [18]) was “Active”, the Activity (Candida albicans [19]) was “Active” and the Activity (Candida albicans [20]) was 2.81%. The Activity (Mus musculus [21]) was 9.84%, the Activity (Candida albicans [22]) was 53.73% and the Activity (Candida albicans [23]) was “Active”. It also gave an MIC50 (Candida albicans [24]) of 1 µg/mL (≈ 2.31 µM), an Activity (Candida albicans [25]) of 72% and an MIC50 (Candida albicans [26]) of 4 µg/mL (≈ 9.25 µM). It also gave an Activity [27] of 37.35%, an Activity [28] of 69.8 IU/L and an Activity [29] of 12.1 mmol/L. The MIC50 (Aspergillus fumigatus) was 2 µg/mL (≈ 4.62 µM), the MIC50 (Candida albicans [30]) was 2 µg/mL (≈ 4.62 µM) and the Activity (Mus musculus [31]) was 18.41%.

`COc1ccc2cc([C@H](C)C(=O)NC(Cn3cncn3)C(=O)c3ccccc3)ccc2c1` (some centres not stated) gave an MIC50 (Candida albicans [1]) of 0.25 µg/mL (≈ 0.583 µM), an MIC50 (Cryptococcus neoformans) of 0.125 µg/mL (≈ 0.292 µM) and an Activity [2] of 46.09%. The Activity [3] was 9.61%, the Activity (Mus musculus [4]) was “Active” and the IC50 [5] was 80 nM. The MIC50 (Candida tropicalis) was 0.125 µg/mL (≈ 0.292 µM), the Activity [6] was 8.62% and the Activity (Candida albicans [7]) was 22.73%. For the same compound, the Activity (Candida albicans [8]) was 3.14%, the Activity (Candida albicans [9]) was 0.81% and the Activity [10] was “Non-Toxic”. The MIC50 (Pichia kudriavzevii) was 0.25 µg/mL (≈ 0.583 µM), the Activity (Candida albicans [11]) was 44.19% and the Activity [12] was “Non-Toxic”. It also gave an Activity (Candida albicans [13]) of 11.59%, an Activity [14] of 39.4 IU/L and an Activity (Candida albicans [15]) of 115%. For the same compound, the MIC50 (Candida albicans [16]) was 1 µg/mL (≈ 2.33 µM), the MIC50 (Candida albicans [17]) was 2 µg/mL (≈ 4.67 µM) and the Activity (Mus musculus [18]) was “Active”. For the same compound, the Activity (Candida albicans [19]) was “Active”, the Activity (Candida albicans [20]) was 14.76% and the Activity (Mus musculus [21]) was 12.36%. For the same compound, the Activity (Candida albicans [22]) was 50.92%, the MIC50 (Candida albicans [24]) was 1 µg/mL (≈ 2.33 µM) and the Activity (Candida albicans [25]) was 62%. The MIC50 (Candida albicans [26]) was 4 µg/mL (≈ 9.34 µM), the Activity [27] was 35.68% and the Activity [28] was 75.1 IU/L. For the same compound, the Activity [29] was 10.5 mmol/L, the MIC50 (Aspergillus fumigatus) was 2 µg/mL (≈ 4.67 µM) and the MIC50 (Candida albicans [30]) was 1 µg/mL (≈ 2.33 µM). It also gave an Activity (Mus musculus [31]) of 11.32%.
